Measurements reported in US20260256833A1, “USE OF BORON FOR THE TREATMENT OF LEISHMANIASIS DISEASE” (YEDITEPE UNIVERSITESI, priority 2023, published 2026).
Read-outs that look alike come from different tables or passages of the source.

Columns and labels:
[1] = tested on: leishmaniasis; settings: cited from earlier work
[2] = tested on: L. infantum promastigotes; assay: Phase-contrast and SEM morphology of parasites; format: cell-based, Leishmania infantum; settings: 24 and 48 hours of incubation with SPT
Experimental: In parallel to this, Leishmania parasites incubated with SPT at different concentrations were morphologically examined under scanning electron microscopy.

[3] = tested on: L. infantum promastigotes; assay: Mitochondrial membrane potential, Rhodamine 123; format: cell-based, Leishmania infantum
Experimental: Mitochondrial membrane potential (ΔΨPm) is measured by using Rhodamine 123 mitochondrial specific fluorescent dye (Sigma-Aldrich). In summary, cells were seeded in a 48-well plate at 300.000 parasites/well. The following day, parasites are treated with SPT at various concentrations (50-400 uM) for 24 and 48 hours. After incubation, cells are resuspended in serum-free RPMI containing 10 μM Rhodamine 123 and incubated in the dark at 37-C for 30 minutes. They are then centrifuged and washed twice with 1×DPBS. The cell suspension is transferred to a 96-well plate and fluorescence intensities are measured at 490 nm excitation and 515 nm emission by using a spectrophoto-fluorimeter (Varioskan LUX multimode reader, Thermo Scientific). Absorbance is evaluated as a fold change with respect to the negative control group.

[4] = tested on: macrophages infected with L. infantum; assay: Infection rate of infected macrophages by flow cytometry; format: cell-based, Leishmania infantum; settings: SPT 50, 75, 100, 150, 200 and 400 μM; 24, 48 and 72 hours
Experimental: RAW264.7 macrophage cells and L. infantum promastigotes were stained with PKH26 (Red Fluorescent Cell Linker Kit, Sigma-Aldrich) and PKH67 (Green Fluorescent Cell Linker Kit, Sigma-Aldrich), respectively, according to the procedure described previously in the article by Islek et al. (2021). A total cell concentration of 10^7 cells/ml was used. Before infection, the staining rate of parasites and cells was determined by flow cytometry.
The effect of SPT on the proliferation of macrophage cells infected with parasites is analyzed. In summary, macrophages are infected with parasites at 37° C. at a ratio of 10:1 (parasite: macrophage). After 3 and a half hours, infected macrophages are washed with medium to remove the remaining parasites. Infected macrophages are left to incubate with SPT at different concentration ranges at 37° C. for 3 days, fixed at the end of 3 days and the infection rate is determined by flow cytometer. The percentage of infection is determined according to the following formula: […]

[5] = tested on: Leishmania infantum (MHOM/MA/67/ITMA-P263) promastigotes; assay: Resazurin / Alamar Blue viability assay on promastigotes; format: cell-based; settings: for parasite viability: SPT above 100 μM
Experimental: Leishmania infantum (MHOM/MA/67/ITMA-P263) promastigotes are incubated in RPMI medium (heat inactivated 10% fetal bovine serum, 2 mM L-glutamine, 20 mM HEPES, 100 U/ml penicillin, 100 μg/ml streptomycin) at 27° C. Parasites reaching the logarithmic phase (10^6/ml) are made infective.
Leishmania parasites are incubated in culture medium and the effect of SPT on the proliferation of their promastigotes is analyzed. In summary, Leishmania infantum (MHOM/MA/67/ITMA-P263) promastigotes are incubated in RPMI medium (heat inactivated 10% fetal bovine serum, 2 mM L-glutamine, 20 mM Hepes, 100 U/ml penicillin, 100 μg/ml streptomycin) at 27° C. […] The viability of the parasites is determined by applying Alamar Blue assay. By obtaining IC50 values from the samples whose fluorescence intensities are read according to the Alamar Blue assay protocol, the activities of SPT are determined.

C[C@@H]1[C@H](O)[C@@H](C)/C=C/C=C/C=C/C=C/C=C/C=C/C=C/[C@H](O[C@@H]2O[C@H](C)[C@@H](O)[C@H](N)[C@@H]2O)C[C@@H]2O[C@](O)(C[C@@H](O)C[C@@H](O)[C@H](O)CC[C@@H](O)C[C@@H](O)CC(=O)O[C@H]1C)C[C@H](O)[C@H]2C(=O)O [Amphotericin B]
cure (comparison data) ([1]; 6-month therapy): 97%
cure rate ([1]; cases where antimonial resistance is observed): ~100%

CCCCCCCCCCCCCCCCOP(=O)([O-])OCC[N+](C)(C)C [Miltefosine]
cure (comparison data) ([1]; miltefosine data compared with 6-month Amphotericin B therapy): 94%
cure level ([1]; oral, 3-4-week treatment): 95-100%

O.O.O.O.[Na+].[O-]B1OO1 [SPT, sodium perborate tetrahydrate]
cell number and morphology by microscopy [2]: dose-dependent decrease in cell number
mitochondrial membrane potential ([3]; SPT 100 μM, 24 hours): 52.2%
mitochondrial membrane potential ([3]; SPT 100 μM, 48 hours): 32.8%
mitochondrial membrane potential ([3]; SPT 150 μM, 24 hours): 39.1%
mitochondrial membrane potential ([3]; SPT 150 μM, 48 hours): 34.1%
mitochondrial membrane potential ([3]; SPT 200 μM, 24 hours): 57.5%
mitochondrial membrane potential ([3]; SPT 200 μM, 48 hours): 41.5%
mitochondrial membrane potential ([3]; SPT 400 μM, 24 hours): 44.6%
mitochondrial membrane potential ([3]; SPT 400 μM, 48 hours): 30.1%
percentage of mitochondrial membrane potential ([3]; SPT ≤75 uM, 24 and 48 hours): above 80%
mitochondrial membrane potential ([3]; SPT ≥100 μM, 24 hours): below 53%
mitochondrial membrane potential ([3]; SPT ≥100 μM, 48 hours): below 35%
infection rate [4]: infection rate did not increase regardless of time and concentration
IC50 ([5]; 72 hours): 72 ± 7.51 µM
cell viability ([5]; SPT 75 μM, 24 hours): below 80%
cell viability ([5]; SPT 75 μM, 48 hours): < 55%
viability of promastigotes ([5]; SPT 75 μM, 72 hours): 50%
reduction in parasite viability ([5]; SPT 100, 125, 150 and 200 μM, 72 hours): approximately 80%
parasite viability ([5]; 24 hours): < 33%
parasite viability ([5]; 48 hours): < 25%
cell viability ([5]; SPT ≤50 uM, 24, 48 and 72 hours): above 80%
